# Results taken from patent publication US20070253907A1, “Non Human Transgenic Animal as Model of Neurodegenerative Diseases and for the Early Diagnosis Thereof” (priority 2004, published 2007).
# Entries after “also recorded” stand apart in the source; their conditions may differ.
# Tested on: VK-AD11 mice
# Assay: Reversal of the neurodegenerative phenotype of VK-AD11 mice by intranasal NGF administration
# Assay type: in vivo
# Conditions: VK-AD11 mice from 4 months of age, NGF 10 μM solution intranasally every 2 days
# Description: All experiments were conducted in mice starting from 4 months of age, when neurodegeneration is not so readily apparent. NGF was administered by intranasal injection (Frey et al., 1997) conducted every 2 days. NGF was administered as a 10 μM solution in phosphate buffer pH 7.4, injecting 3 μl per nostril every 2 min and alternating nostrils. The VK-AD11 control mice and non transgenic mice were treated only with phosphate buffer. For each administration, the infusion lasted 30 min. This non invasive method for administering NGF allows to avoid the use of the intraventricular injections to apply NGF directly to the cerebral tissue.
# To verify the administration of NGF, the mice were sacrificed 2 months from the begining of the treatment. The brain was removed and fixed in paraformaldehyde to conduct histological analyses.
substance,measurement,setting,value
"NGF: Nerve Growth Factor, administered intranasally as a 10 μM solution in phosphate buffer pH 7.4",cholinergic deficit,histology 2 months from beginning of treatment (FIG. 18A),improves; also recorded: a similar phenotype to that of the non transgenic control mice was re-established
same,deposition of β-amyloid (number of cells containing β-amyloid),histology 2 months from beginning of treatment (FIG. 18B),decreases; also recorded: a similar phenotype to that of the non transgenic control mice was re-established
same,hyperphosphorylated tau (number of cells that express phosphorylated tau),histology 2 months from beginning of treatment (FIG. 18C),decreases; also recorded: a similar phenotype to that of the non transgenic control mice was re-established
